In patent US20200079793A1, “COMPOUNDS AND METHODS FOR MODULATING ADENOSINE A2B RECEPTOR AND ADENOSINE A2A RECEPTOR” (CORVUS PHARMACEUTICALS, INC., priority 2018, published 2020):

Experiments:
Adenosine A2B Receptor = biological target: T1, Adenosine A2B Receptor (Homo sapiens, UniProt P29275); test: Activity assay of adenosine receptor modulators, Adenosine A2B Receptor (Table 1); type: biochemical; conditions: cAMP; read-out: A2BR cAMP IC50
T1 sequence (P29275 1-332): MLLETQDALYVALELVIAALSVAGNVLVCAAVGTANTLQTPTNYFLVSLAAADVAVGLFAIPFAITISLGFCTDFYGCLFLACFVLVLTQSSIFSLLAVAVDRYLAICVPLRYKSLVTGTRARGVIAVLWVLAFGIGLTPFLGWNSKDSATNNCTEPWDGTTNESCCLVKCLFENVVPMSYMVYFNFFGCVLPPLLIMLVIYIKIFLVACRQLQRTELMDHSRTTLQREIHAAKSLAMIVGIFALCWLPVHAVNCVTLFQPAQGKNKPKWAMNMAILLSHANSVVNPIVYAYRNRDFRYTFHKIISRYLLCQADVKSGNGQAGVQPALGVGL
Description: (§1) Compounds (e.g., adenosine receptor modulators) were tested for its biological activity. The assay results in Table 1 indicate (+ means >1 μM; ++ means 100 nM to 1 μM; +++ means <100 nM).

Adenosine A2A Receptor = Adenosine A2A Receptor (Homo sapiens, UniProt P29274); test: Activity assay of adenosine receptor modulators, Adenosine A2A Receptor (Table 1); type: biochemical; conditions: cAMP; read-out: A2AR cAMP IC50
Adenosine A2A Receptor, sequence (P29274 whole entry): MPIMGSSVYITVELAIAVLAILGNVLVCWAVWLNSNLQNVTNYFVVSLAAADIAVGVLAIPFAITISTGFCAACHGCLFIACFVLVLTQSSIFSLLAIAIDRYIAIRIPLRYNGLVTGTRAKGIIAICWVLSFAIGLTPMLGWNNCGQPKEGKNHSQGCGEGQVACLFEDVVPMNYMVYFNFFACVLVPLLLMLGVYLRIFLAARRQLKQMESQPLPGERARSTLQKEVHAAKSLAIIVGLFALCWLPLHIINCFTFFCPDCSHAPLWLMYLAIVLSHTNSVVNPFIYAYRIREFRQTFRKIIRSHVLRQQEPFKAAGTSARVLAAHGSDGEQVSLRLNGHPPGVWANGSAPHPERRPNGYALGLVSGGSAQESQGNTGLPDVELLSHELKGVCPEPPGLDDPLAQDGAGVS
Description: as §1

A1R = biological target: T2, A1R (Homo sapiens, UniProt P30542); test: Activity assay of adenosine receptor modulators, A1R cAMP (Table 1); type: cell-based
T2 sequence (P30542 1-326): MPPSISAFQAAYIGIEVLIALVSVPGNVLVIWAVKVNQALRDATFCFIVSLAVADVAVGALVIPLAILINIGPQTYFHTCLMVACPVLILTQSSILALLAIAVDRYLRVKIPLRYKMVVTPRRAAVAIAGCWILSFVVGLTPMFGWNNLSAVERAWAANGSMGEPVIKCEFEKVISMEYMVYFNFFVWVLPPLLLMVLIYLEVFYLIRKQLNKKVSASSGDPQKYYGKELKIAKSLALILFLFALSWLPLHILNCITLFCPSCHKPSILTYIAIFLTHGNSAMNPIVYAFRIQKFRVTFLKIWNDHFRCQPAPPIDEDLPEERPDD
Description: as §1

A3R = biological target: T3, A3R (Homo sapiens, UniProt P0DMS8); test: Activity assay of adenosine receptor modulators, A3R cAMP (Table 1); type: cell-based
T3 sequence (P0DMS8 1-318): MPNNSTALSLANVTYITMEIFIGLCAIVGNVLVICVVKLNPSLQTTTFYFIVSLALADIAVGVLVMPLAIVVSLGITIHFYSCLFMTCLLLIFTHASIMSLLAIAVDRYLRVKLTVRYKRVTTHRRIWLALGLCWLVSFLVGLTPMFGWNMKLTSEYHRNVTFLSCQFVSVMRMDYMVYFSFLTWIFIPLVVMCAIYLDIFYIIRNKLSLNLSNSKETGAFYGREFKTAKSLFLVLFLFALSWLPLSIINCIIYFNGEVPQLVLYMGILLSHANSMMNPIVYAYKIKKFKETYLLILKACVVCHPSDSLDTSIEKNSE
Description: as §1

Structure (SMILES) | IC50 (Adenosine A2B Receptor) [nM] | IC50 (Adenosine A2A Receptor) [nM] | IC50 (A1R) [nM] | IC50 (A3R) [nM]
Cc1nc2nc(N[C@@H](C)c3cccnc3)nc(C(=O)NC[C@H](C)O)c2s1 [Example 15, N—((S)-2-Hydroxypropyl)-2-methyl-5-(((S)-1-(pyridin-3-yl)ethyl)amino)thiazolo[4,5-d]pyrimidine-7-carboxamide] | < 100 | > 1000 | > 1000 | > 1000
Cc1nc2nc(N[C@@H](C)c3cncc(F)c3)nc(C(=O)N3CC(C(N)=O)C3)c2s1 [Example 33, (S)-1-(5-((1-(5-Fluoropyridin-3-yl)ethyl)amino)-2-methylthiazolo[4,5-d]pyrimidine-7-carbonyl)azetidine-3-carboxamide] | < 100 | > 1000 | > 1000 | > 1000
Cc1nc2nc(N[C@@H](C)c3cncc(F)c3)nc(C(=O)N3CC(NC(=O)NC(C)(C)C)C3)c2s1 [Example 57, (S)-1-(tert-Butyl)-3-(1-(5-((1-(5-fluoropyridin-3-yl)ethyl)amino)-2-methylthiazolo[4,5-d]pyrimidine-7-carbonyl)azetidin-3-yl)urea] | < 100 | < 100 | > 1000 | 100 to 1000
Cc1nc2nc(N[C@@H](C)c3cncc(F)c3)nc(C(=O)N3CC(NC(=O)NC4CCCC4)C3)c2s1 [Example 60, (S)-1-Cyclopentyl-3-(1-(5-((1-(5-fluoropyridin-3-yl)ethyl)amino)-2-methylthiazolo[4,5-d]pyrimidine-7-carbonyl)azetidin-3-yl)urea] | < 100 | < 100 | > 1000 | 100 to 1000
COCCNC(=O)c1nc(N[C@@H](C)c2cncc(F)c2)nc2nc(C)sc12 [Example 25, (S)-5-((1-(5-Fluoropyridin-3-yl)ethyl)amino)-N-(2-methoxyethyl)-2-methylthiazolo[4,5-d]pyrimidine-7-carboxamide] | < 100 | 100 to 1000 | > 1000 | > 1000
Cc1nc2nc(N[C@@H](C)c3cncc(F)c3)nc(C(=O)NCCC3CCNCC3)c2s1 [Example 32, (S)-5-((1-(5-Fluoropyridin-3-yl)ethyl)amino)-2-methyl-N-(2-(piperidin-4-yl)ethyl)thiazolo[4,5-d]pyrimidine-7-carboxamide] | < 100 | > 1000 | > 1000 | > 1000
Cc1nc2nc(N[C@@H](C)c3cccnc3)nc(C(=O)N3CC(NC(=O)c4cccc(F)c4)C3)c2s1 [Example 74, 3-Fluoro-N-[1-[2-methyl-5-[[(S)-1-(3-pyridyl)ethyl]amino]thiazolo[4,5-d]pyrimidine-7-carbonyl]azetidin-3-yl]benzamide] | 100 to 1000 | < 100 | > 1000 | > 1000
CC(=O)NCC1CN(C(=O)c2nc(N[C@@H](C)c3cncc(F)c3)nc3nc(C)sc23)C1 [Example 39, (S)—N-((1-(5-((1-(5-Fluoropyridin-3-yl)ethyl)amino)-2-methylthiazolo[4,5-d]pyrimidine-7-carbonyl)azetidin-3-yl)methyl)acetamide] | < 100 | > 1000 | > 1000 | > 1000
Cc1nc2nc(N[C@@H](C)c3cncc(F)c3)nc(C(=O)N3CC(NC(=O)C4CCCC4)C3)c2s1 [Example 55, (S)—N-(1-(5-((1-(5-Fluoropyridin-3-yl)ethyl)amino)-2-methylthiazolo[4,5-d]pyrimidine-7-carbonyl)azetidin-3-yl)cyclopentanecarboxamide] | < 100 | < 100 | > 1000 | < 100
COC[C@@H]1CCN(C(=O)c2nc(N[C@@H](C)c3cncc(F)c3)nc3nc(C)sc23)C1 [Example 47, (5-(((S)-1-(5-Fluoropyridin-3-yl)ethyl)amino)-2-methylthiazolo[4,5-d]pyrimidin-7-yl)((R)-3-(methoxymethyl)pyrrolidin-1-yl)methanone] | < 100 | > 1000 | > 1000 | > 1000
Cc1nc2nc(N[C@@H](C)c3cncc(F)c3)nc(C(=O)NCCc3ccc(O)cc3)c2s1 [Example 21, (S)-5-((1-(5-Fluoropyridin-3-yl)ethyl)amino)-N-(4-hydroxyphenethyl)-2-methylthiazolo[4,5-d]pyrimidine-7-carboxamide] | < 100 | > 1000 | > 1000 | > 1000
Cc1nc2nc(N[C@@H](C)c3cccnc3)nc(C(=O)N3CC(NC(=O)C4(C)CC4)C3)c2s1 [Example 76, 1-Methyl-N-[1-[2-methyl-5-[[(S)-1-(3-pyridyl)ethyl]amino]thiazolo[4,5-d]pyrimidine-7-carbonyl]azetidin-3-yl]cyclopropanecarboxamide] | 100 to 1000 | < 100 | > 1000 | 100 to 1000
Cc1nc2nc(N[C@@H](C)c3cncc(F)c3)nc(C(=O)N3CC(NC(=O)c4ccccc4)C3)c2s1 [Example 58, (S)—N-(1-(5-((1-(5-Fluoropyridin-3-yl)ethyl)amino)-2-methylthiazolo[4,5-d]pyrimidine-7-carbonyl)azetidin-3-yl)benzamide] | < 100 | < 100 | > 1000 | < 100
CO[C@@H]1CCN(C(=O)c2nc(N[C@@H](C)c3cncc(F)c3)nc3nc(C)sc23)C1 [Example 40, (5-(((S)-1-(5-Fluoropyridin-3-yl)ethyl)amino)-2-methylthiazolo[4,5-d]pyrimidin-7-yl)((R)-3-methoxypyrrolidin-1-yl)methanone] | < 100 | 100 to 1000 | > 1000 | > 1000
Cc1nc2nc(N[C@@H](C)c3ccccn3)nc(C(=O)N3CCCC3)c2s1 [Example 9, (S)-(2-Methyl-5-((1-(pyridin-2-yl)ethyl)amino)thiazolo[4,5-d]pyrimidin-7-yl)(pyrrolidin-1-yl)methanone] | < 100 | 100 to 1000 | > 1000 | 100 to 1000
COC[C@H]1CCN(C(=O)c2nc(N[C@@H](C)c3cncc(F)c3)nc3nc(C)sc23)C1 [Example 48, (5-(((S)-1-(5-Fluoropyridin-3-yl)ethyl)amino)-2-methylthiazolo[4,5-d]pyrimidin-7-yl)((S)-3-(methoxymethyl)pyrrolidin-1-yl)methanone] | < 100 | 100 to 1000 | > 1000 | > 1000
Cc1nc2nc(N[C@@H](C)c3cncc(F)c3)nc(C(=O)NC[C@@H](C)O)c2s1 [Example 3, 5-(((S)-1-(5-Fluoropyridin-3-yl)ethyl)amino)-N—((R)-2-hydroxypropyl)-2-methylthiazolo[4,5-d]pyrimidine-7-carboxamide] | < 100 | 100 to 1000 | 100 to 1000 | 100 to 1000
Cc1nc2nc(N[C@@H](C)c3cccnc3)nc(C(=O)NC[C@@H](C)O)c2s1 [Example 12, N—((R)-2-Hydroxypropyl)-2-methyl-5-(((S)-1-(pyridin-3-yl)ethyl)amino)thiazolo[4,5-d]pyrimidine-7-carboxamide] | < 100 | > 1000 | > 1000 | > 1000
CC(=O)NC1CN(C(=O)c2nc(N[C@@H](C)c3cncc(F)c3)nc3nc(C)sc23)C1 [Example 28, (S)—N-(1-(5-((1-(5-Fluoropyridin-3-yl)ethyl)amino)-2-methylthiazolo[4,5-d]pyrimidine-7-carbonyl)azetidin-3-yl)acetamide] | < 100 | 100 to 1000 | > 1000 | > 1000
